The test system of the first experiment is HT-1080. The experiment in a line: Reversal of erastin induced cell death in human HT-1080 cells assessed as cell viability preincubated for 1 hr followed by erastin addition and measured after 24 hrs by CCK8 method. Background: Tetrazolium dyes change colour on reduction, which living cells bring about.
Broadly, the EC50 is the concentration needed to bring the measured effect to its halfway point. For the compound `COc1ccc(NCc2cccn2-c2nnc(N3CCN(C)CC3)s2)cc1OC`, the EC50 was 19.2 µM. On to `COc1ccc(NCc2cccn2-c2nnc(N3CCN(C)CC3)s2)c(OC)c1`, for which the EC50 was determined as 7.8 µM.

A further experiment concerns the target T1, Phospholipid hydroperoxide glutathione peroxidase GPX4 (Homo sapiens, UniProt P36969).
T1 sequence (P36969 whole entry): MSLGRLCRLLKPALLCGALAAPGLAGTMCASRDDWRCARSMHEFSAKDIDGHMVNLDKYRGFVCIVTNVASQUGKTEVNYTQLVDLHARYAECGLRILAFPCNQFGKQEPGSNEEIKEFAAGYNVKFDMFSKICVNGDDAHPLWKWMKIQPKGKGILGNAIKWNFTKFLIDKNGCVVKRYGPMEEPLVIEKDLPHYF
The experiment in a line: Binding affinity to GPX4 (unknown origin) assessed as dissociation constant by surface plasmon resonance. In general terms: SPR reads the build-up and loss of mass on a sensor chip optically.
As a reminder, the Kd is the equilibrium constant for the complex coming apart. As to `COc1ccc(NCc2cccn2-c2nncs2)cc1OC`, the Kd was 7.91 µM. Still for that read-out and setting: the value for `CCN(CC)c1nnc(-n2cccc2CNc2ccc(OC)c(OC)c2)s1` was 9.8 µM. For the compound `COc1ccc(NCc2cccn2-c2nnc(N(C)C)s2)cc1OC`, the dissociation constant (Kd) was determined as 5.22 µM.

Take `COc1ccc(NCc2cccn2-c2nn3ccnc3s2)cc1OC`: the Kd worked out at 4.23 µM.

With `COc1ccc(NCc2ccnn2-c2nnc(N3CCN(C)CC3)s2)cc1OC`, the Kd was 4.64 µM. Regarding `COc1ccc(NCc2cncn2-c2nnc(N3CCN(C)CC3)s2)cc1OC`, the dissociation constant (Kd) came out at 3.43 µM. The same measure, in the same setting: the value for `COc1ccc(NCc2cccn2-c2nnc(NC(=O)c3ccccc3F)s2)cc1OC` was 10.5 µM; that for `COc1ccc(NCc2cccn2-c2nnc(N3CCOCC3)s2)cc1OC` was 27.1 µM. `CCOc1cc(NCc2cccn2-c2nnc(N3CCN(C)CC3)s2)ccc1OC`: the dissociation constant Kd came out at 10.7 µM. For the compound `CCCN1CCN(c2nnc(-n3cccc3CNc3ccc(OC)c(OC)c3)s2)CC1`, the dissociation constant Kd came to 0.036 µM.

In the case of `COc1ccc(NCc2cc3ccccc3n2-c2nnc(N3CCN(C)CC3)s2)cc1OC`, the Kd was 4.06 µM.

With `COc1ccc(NCc2cccn2-c2nnc(N3CCCCC3)s2)cc1OC`, the equilibrium dissociation constant (Kd) came to 5.69 µM. For `COc1ccc(NCc2cccn2-c2ccc(N3CCN(C)CC3)s2)cc1OC`, the Kd was determined as 6.9 µM.

Regarding `COc1ccc(NCc2cccn2-c2nnc(NC(=O)c3ccccc3)s2)cc1OC`, the dissociation constant (Kd) worked out at 1.27 µM. `COc1ccc(NCc2cccn2-c2nnc(NC(=O)c3ccc(F)cc3)s2)cc1OC`: the Kd worked out at 4.69 µM. Take `COc1ccc(NCc2cccn2-c2cccc(N3CCN(C)CC3)n2)cc1OC`: the dissociation constant Kd is 2.1 µM. Same read-out and setting: the value for `COc1ccc(NCc2cccn2-c2nnc(NC(=O)c3cccc(F)c3)s2)cc1OC` was 0.931 µM; that for `COc1ccc(NCc2cccn2-c2nnc(N3CCN(C)CC3)s2)cc1OC` was 5.86 µM; that for `COc1ccc(NCc2cccn2-c2ccc(Cl)cc2)cc1OC` was 1.14 µM. With `COc1ccc(NCc2cccn2-c2nnc(N)s2)cc1OC`, the dissociation constant Kd was 0.17 µM.

For the compound `COc1ccc(NCc2cccn2-c2nnc(C)s2)cc1OC`, the Kd stood at 4.48 µM. For the compound `COc1ccc(NCc2cccn2-c2cccc(Cl)n2)cc1OC`, the Kd was found to be 1.05 µM. The same measure, in the same setting: the result for `COc1ccc(NCc2cccn2-c2nn3ccnc3s2)c(OC)c1` reads 0.717 µM; that for `COc1ccc(NCc2cccn2-c2nnc(N3CCOCC3)s2)c(OC)c1`, 10.5 µM. Turning to `COc1ccc(NCc2cccn2-c2cnc(C)s2)cc1OC`, the dissociation constant Kd is 8.24 µM.

As for `CN1CCN(c2nnc(-n3cccc3CNc3ccc4c(c3)OCCO4)s2)CC1`, the Kd came out at 0.835 µM. As to `COc1ccc(NCc2cccn2-c2nnc(N3CCN(C)CC3)s2)cc1`, the Kd is 7.87 µM. For the compound `COc1ccc(NCc2cccn2-c2nc3ccccc3s2)cc1OC`, the Kd was determined as 4.99 µM. For the compound `COc1ccc(NCc2cccn2-c2nnc(N3CCN(C)CC3)s2)c(OC)c1`, the dissociation constant (Kd) stood at 0.426 µM.

The values above are taken from ChEMBL document CHEMBL5614391, “GPX4 allosteric activators inhibit ferroptosis and exert myocardial protection in doxorubicin-induced myocardial injury mouse model” (Eur J Med Chem, 2024).
